Assay results from publication PMC6990439, “Novel Sulfonanilide Inhibitors of SHIP2 Enhance Glucose Uptake into Cultured Myotubes” (ACS Omega, 2020).
Entries after “also recorded” stand apart in the source; their conditions may differ. Read-outs that look alike come from different tables or passages of the source. Values belong to the compound of their own block, whether it stands above or below them.

Key:
[1] = target: T1, recombinant SHIP2 phosphatase domain (Homo sapiens, UniProt O15357); experiment: SHIP2 activity measurement, malachite green phosphate assay; format: biochemical; details: for Emax: read-out: max. inhibition of SHIP2 activity; for IC50: 100 μM PI(3,4,5)P3, four-parameter curve-fit
T1 construct: 100 ng of purified His-tagged recombinant SHIP2 phosphatase domain; His tag
T1 sequence (O15357 419-732 limits assumed): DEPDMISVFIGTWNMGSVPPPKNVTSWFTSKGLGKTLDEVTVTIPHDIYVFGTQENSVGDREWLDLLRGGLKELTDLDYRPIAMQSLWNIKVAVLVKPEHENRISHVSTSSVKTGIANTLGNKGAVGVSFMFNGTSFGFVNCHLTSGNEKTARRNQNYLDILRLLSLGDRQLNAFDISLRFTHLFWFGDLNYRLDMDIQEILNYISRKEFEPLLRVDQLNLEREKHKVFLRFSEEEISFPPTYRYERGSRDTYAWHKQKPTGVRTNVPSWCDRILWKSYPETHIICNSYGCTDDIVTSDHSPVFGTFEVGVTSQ
Protocol: For the activity measurements and other biological assays, sulfonanilides 1–12 were dissolved in DMSO and then further diluted into indicated concentrations in assay buffers or media. The capacities of 1–12 to inhibit SHIP2 activity and the IC50 values of 1–12 were measured using the recombinant SHIP2 phosphatase domain and malachite green phosphate assay at the High Throughput Biomedicine Unit (University of Helsinki, Finland). Different concentrations of 1–12 were dispensed to 384-well plates after which 100 ng of purified His-tagged recombinant SHIP2 phosphatase domain in reaction buffer (10 mM HEPES, pH 7.25, 6 mM MgCl2, 0.1% CHAPS, 250 mM sucrose and 0.25 mM EDTA) was added, and the plates were incubated for 15 min at room temperature. The reaction was started by adding 7.5 μL of PI(3,4,5)P3 (Echelon Biosciences, Salt Lake City, UT, USA) diluted in the reaction buffer (the final concentration of PI(3,4,5)P3 per well was 100 μM in the total volume of 15 μL), plates were incubated for 20 min at room temperature, and 15 μL of BIOMOL green reagent (Biomol, Plymouth Meeting, PA, USA) was added to wells. After 25 min incubation at room temperature, the absorbance was measured at 620 nm using a Pherastar FS plate reader (BMG Labtech, Offenburg, Germany) (n = 3 for each condition).
Data are presented as means ± STD or SEM of three or four independent experiments. Statistical analyses were performed using an unpaired, two-tailed Student’s t-test. P-values ≤0.05 were considered statistically significant. IC50-values were calculated using GraphPad Software, Inc., Prism version 6.05 (San Diego, CA, USA) using four-parameter curve-fit.

[2] = tested on: L6 myotubes; experiment: alamarBlue cell viability (cytotoxicity) assay; format: cell-based, Rat; details: for effect on metabolic activity of the cells (alamarBlue): 50 μM; for effect on cell viability: up to 200 μM
Protocol: (§1) Rat L6 myoblasts (American Type Culture Collection, Manassas, Virginia, USA) and L6 myoblasts stably overexpressing HA-tagged GLUT4 transporter (L6-GLUT4) were grown in high glucose DMEM (Sigma-Aldrich) supplemented with 10% FBS (Sigma-Aldrich, St. Louis, MO, USA), glutamine (Lonza; Walkersville, MD, USA), and penicillin–streptomycin (Sigma-Aldrich) at +37 °C in a humidified 5% CO2 atmosphere. For differentiation, the FBS concentration in the medium was lowered to 2%.
For cytotoxicity analyses, L6 myoblasts were seeded on 96-well plates, differentiated for 7 days into myotubes, and incubated O/N with 0-300 μM sulfonanilides after which 10 μL of alamarBlue cell viability reagent (ThermoFisher Scientific, Waltham, MA, USA) was added according to the manufacturer instructions. The fluorescence was measured at 544/590 nm ± 20 nm using a Hidex Sense microplate reader (Hidex, Turku, Finland) at 0 and 60 min time points after the addition of the alamarBlue reagent, and the viability of the cells was calculated. The assay was repeated three times (n = 4 for each condition).

[3] = tested on: Akt phosphorylation in L6 myotubes; experiment: Akt activation (phosphorylation at Ser473) assay, quantitative Western blotting; format: cell-based, Rat; details: 15 min pretreatment then 10 nM insulin for 15 min
Protocol: as §1
To measure the Akt activation (phosphorylation), L6 myoblasts were differentiated into myotubes for 7 days, serum starved O/N, and treated with 0–50 μM sulfonanilides for 15 min after which 10 nM insulin (Actrapid, Novo Nordisk, Bagsvaerd, Denmark) was added for an additional 15 min. The cells were lysed in NP-40 buffer (1% nonidet P-40, 20 mM Tris–HCl pH 7.4, 150 mM NaCl) supplemented with phosphatase inhibitors (50 mM NaF and 1 mM Na3VO4) and protease inhibitor cocktail (cOmpleteProtease Inhibitor Coctail tablets, Roche Diagnostics GmbH, Mannheim, Germany) and then immunoblotted as in Tolvanen et al.[32] Briefly, samples were separated in 8% polyacrylamide gels and transferred onto PVDF membrane (Immobilon-FL PVDF transfer membrane, Merck Millipore Ltd., Tullagreen, Ireland). […]

[4] = tested on: L6-GLUT4 myotubes; experiment: Radioactive 2-deoxyglucose glucose uptake assay; format: cell-based, Rat; details: 50 μM, 20 h; for increase of glucose uptake with insulin stimulation: 100 nM insulin 15 min, compared to control cells stimulated with insulin; for increase of glucose uptake without insulin: serum starvation, no insulin, vs control
Protocol: as §1
Glucose uptake was measured by a radioactive 2-deoxyglucose assay. L6 myotubes overexpressing GLUT4 glucose transporter were differentiated for 8–9 days. Cells were serum-starved for 20 h supplemented with 50 μM of sulfonanilides 10 or 11, 50 μM of metformin. Thereafter, cells were stimulated or not with 100 nM insulin for 15 min at 37 °C in DMEM (without D-glucose, L-glutamine, phenol red, and sodium pyruvate) (Gibco/Thermo Fisher Scientific). The cells were exposed to 1 μCi/mL 2-deoxy-D-[1, 2-^3H(N)]-glucose (PerkinElmer, Waltham MA, USA) for 5 min at 37 °C. Cells were lysed in 1% Triton X-100 in PBS, and the radioactivity of lysates was measured with a Wallac 1450 Microbeta Trilux liquid scintillator and a luminescense counter (PerkinElmer). Four independent experiments were performed, with 4 technical replicates for each condition.

[5] = tested on: L6-GLUT4 myotubes; experiment: On-Cell Western for HA-GLUT4 on the plasma membrane; format: cell-based, Rat; details: for increase of GLUT4 on the plasma membrane with insulin stimulation, compared to control cells treated with insulin / increase of GLUT4 on the plasma membrane with insulin stimulation, compared to control cells without insulin / increase of GLUT4 on the plasma membrane without insulin stimulation: 50 μM, 20 h; for increase of GLUT4 on the plasma membrane without insulin stimulation: no insulin, vs control without insulin
Protocol: as §1
Differentiated L6-GLUT4 myotubes cultured on 96-well plate were treated with sulfonanilides 10 or 11 at 50 μM concentration for 20 h, of which the last 4 h in a serum-free medium. The quiescent cells were stimulated or not with 100 nM insulin for 15 min at 37 °C and fixed with 2% paraformaldehyde on ice for 5 min followed by 20 min at room temperature. The cells were incubated with a primary antibody against HA.11 epitope tag (#901513, BioLegend, San Diego, CA, USA) diluted 1/100 in 50% Odyssey Blocking buffer (LI-COR) in PBS at room temperature for 1 h, followed by incubation with a secondary antibody (IRDye 800CW Donkey anti-Mouse, LI-COR) and the nuclear marker DRAQ-5 (Thermo Fisher Scientific, Rockford, IL, USA) at room temperature for 1 h. The fluorescent signals were detected and quantified with an Odyssey infrared imager (LI-COR). DRAQ-5 was used for normalization. Four independent experiments were performed, resulting in total in 30–34 replicates for each condition.

[6] = tested on: L6-GLUT4 myotubes; set-up: method as in PMID 30321069, PMID 1505458; details: cited from earlier work
[7] = purified His-tagged SHIP2 phosphatase domain
[8] = purified His-tagged SHIP2 phosphatase domain, 100 μM PI(3,4,5)P3, n = 3

Compound: CN(c1ccccc1)S(=O)(=O)c1ccccc1 [Compound 1, N-Methylbenzenesulfonanilide]
- Emax [1]: 6 ± 2.8%

Compound: Cc1ccc(S(=O)(=O)N(C)c2ccccc2)cc1 [Compound 2, N-Methyl-p-toluenesulfonanilide]
- Emax [1]: 10 ± 7.2%

Compound: Cc1ccc(S(=O)(=O)Nc2ccc(F)cc2Br)cc1 [Compound 7, 2′-Bromo-4′-fluoro-p-toluenesulfonanilide]
- IC50 [1, 7]: > 50 µM
- Emax [1, 8]: 17 ± 2.1%

Compound: O=S(=O)(Nc1ccc(F)cc1Br)c1ccc(F)c(F)c1F [Compound 8, 2′-Bromo-4′-fluoro-2,3,4-trifluorobenzenesulfonanilide]
- Emax [1, 8]: 10 ± 5.1%

Compound: O=S(=O)(Nc1ccc(F)cc1Br)c1ccoc1 [Compound 9, 2′-Bromo-4′-fluoro-3-furansulfonanilide]
- Emax [1, 8]: 9 ± 3%

Compound: CN(c1ccc(F)cc1F)S(=O)(=O)c1ccc(F)c(F)c1F [Compound 11, 2′,4′-Difluoro-N-methyl-2,3,4-trifluorobenzenesulfonanilide]
- effect on metabolic activity of the cells (alamarBlue) [2]: slightly enhance the metabolic activity
- decrease of cell viability ([2]; 300 μM, O/N incubation): 24%
- effect on cell viability ([2]; O/N incubation): no or very little effect on cell viability
- Akt activation at 50 μM [3]: Neither sulfonanilide 10 nor 11 activated Akt; also recorded: did not enhance Akt activation
- increase of glucose uptake with insulin stimulation [4]: 23%
- increase of glucose uptake without insulin [4]: 18–19%
- increase of GLUT4 on the plasma membrane with insulin stimulation, compared to control cells treated with insulin ([5]; 100 nM insulin 15 min): no increase
- increase of GLUT4 on the plasma membrane with insulin stimulation, compared to control cells without insulin ([5]; 100 nM insulin 15 min): 15%
- increase of GLUT4 on the plasma membrane without insulin stimulation [5]: 8%
- IC50 [1, 7]: 7.07 µM
- Emax [1, 8]: 45 ± 0.7%

Compound: CN(C)C(=N)N=C(N)N [Metformin, metformin, reference compound]
- concentration necessary to increase glucose uptake into myotubes [6]: 2 mM
- increase of glucose uptake with insulin stimulation [4]: did not enhance glucose uptake; also recorded: did not increase glucose uptake
- increase of glucose uptake without insulin [4]: did not enhance glucose uptake

Compound: insulin: insulin (Actrapid, Novo Nordisk) used to stimulate myotubes
- increase of GLUT4 on the plasma membrane by insulin stimulation alone ([5]; control myotubes without sulfonanilide, 100 nM insulin 15 min, vs no insulin): 16%

The next lines start with results.

- IC50 [1, 7]: > 50 µM
- Emax [1, 8]: 15 ± 1.6%
Compound: CN(c1ccccc1)S(=O)(=O)c1ccc2ccccc2c1 [Compound 3, N-Methyl-2-naphthalenesulfonanilide]

- IC50 [1, 7]: > 50 µM
- Emax [1, 8]: 12 ± 4%
Compound: CN(c1ccccc1)S(=O)(=O)c1ccc(F)c(F)c1F [Compound 4, N-Methyl-2,3,4-trifluorobenzenesulfonanilide]

- Emax [1, 8]: 3 ± 1.5%
Compound: CN(c1ccccc1)S(=O)(=O)c1ccoc1 [Compound 5, N-Methyl-3-furansulfonanilide]

- IC50 [1, 7]: > 50 µM
- Emax [1, 8]: 11 ± 2.2%
Compound: CN(c1ccccc1)S(=O)(=O)c1cccs1 [Compound 6, N-Methyl-2-thiophenesulfonanilide]

- IC50 [1, 7]: 41.2 µM
- Emax [1, 8]: 45 ± 17%
Compound: O=S(=O)(Nc1ccc(F)cc1Br)c1cccs1 [Compound 10, 2′-Bromo-4′-fluoro-2-thiophenesulfonanilide]
- effect on metabolic activity of the cells (alamarBlue) [2]: slightly enhance the metabolic activity
- effect on cell viability ([2]; O/N incubation): no or very little effect on cell viability; also recorded: not cytotoxic
- Akt activation at 50 μM [3]: Neither sulfonanilide 10 nor 11 activated Akt; also recorded: did not enhance Akt activation
- increase of glucose uptake with insulin stimulation [4]: 30%
- increase of glucose uptake without insulin [4]: 18–19%
- increase of GLUT4 on the plasma membrane with insulin stimulation, compared to control cells treated with insulin ([5]; 100 nM insulin 15 min): 10%
- increase of GLUT4 on the plasma membrane with insulin stimulation, compared to control cells without insulin ([5]; 100 nM insulin 15 min): 26%
- increase of GLUT4 on the plasma membrane without insulin stimulation [5]: 4%

- max. inhibition of SHIP2 activity [1, 8]: almost inactive
- Emax [1, 8]: 5 ± 1.7%
Compound: CN(c1ccc(F)cc1F)S(=O)(=O)c1cccs1 [Compound 12, 2′,4′-Difluoro-N-methyl-2-thiophenesulfonanilide]
